Assay results: patent publication US8431536B2, “Target for breast cancer therapy and/or diagnosis” (The University of Queensland, priority 2007, dated 2013)

Tested on: MCF-7 breast cancer cells
Experiment: MTS proliferation/viability assay in MCF-7 breast cancer cells
Type: cell-based
Settings: 50 μM, treated on plating in 10% foetal bovine serum, MTS 72 hrs after plating, p<0.05 vs methanol control (FIG. 8)
Protocol: FIG. 6 The effect of siRNA to CRACM1 (96 hrs) on the viability of MCF-7 cells, as measured by an MTS assay for cellular proliferation. Normalized MTS absorbance (proliferation/viability) of the mean of 3 independent experiments in MCF-7 breast cancer cells (±SEM). For each experiment absorbance was assessed in quadruplicate. Experiment was performed in 1% foetal bovine serum (p<0.05).
FIG. 8 MTS assay of MCF-7 cells treated with 50 μM 2-APB. * p<0.05 compared with respective methanol control. Error bars=SD. Cells were treated with 2-APB on plating in 10% foetal bovine serum. MTS assay was performed 72 hrs after plating.

## NCCOB(c1ccccc1)c1ccccc1 [2-APB, 2-aminoethoxydiphenyl borate]
  proliferation/viability of MCF-7 cells (MTS assay): inhibits the proliferation/viability of MCF-7 breast
